Reference: PMC5064002, “Sintokamide A Is a Novel Antagonist of Androgen Receptor That Uniquely Binds Activation Function-1 in Its Amino-terminal Domain” (The Journal of Biological Chemistry, 2016)

Key:
Assay type in all cases: cell-based
[1] = target: T1, AR-V567es (Homo sapiens, UniProt P10275); experiment: Transcriptional activity of AR splice variant, PB-luciferase in COS-1 cells; conditions: for AR-V567es transcriptional activities (PB-luciferase): COS-1, 20 μM SINT1, 25 μM EPI-002
T1 construct: expressed in transfected cells; host or cells: COS-1
T1 sequence (P10275 with tags, fused parts or gaps limits assumed): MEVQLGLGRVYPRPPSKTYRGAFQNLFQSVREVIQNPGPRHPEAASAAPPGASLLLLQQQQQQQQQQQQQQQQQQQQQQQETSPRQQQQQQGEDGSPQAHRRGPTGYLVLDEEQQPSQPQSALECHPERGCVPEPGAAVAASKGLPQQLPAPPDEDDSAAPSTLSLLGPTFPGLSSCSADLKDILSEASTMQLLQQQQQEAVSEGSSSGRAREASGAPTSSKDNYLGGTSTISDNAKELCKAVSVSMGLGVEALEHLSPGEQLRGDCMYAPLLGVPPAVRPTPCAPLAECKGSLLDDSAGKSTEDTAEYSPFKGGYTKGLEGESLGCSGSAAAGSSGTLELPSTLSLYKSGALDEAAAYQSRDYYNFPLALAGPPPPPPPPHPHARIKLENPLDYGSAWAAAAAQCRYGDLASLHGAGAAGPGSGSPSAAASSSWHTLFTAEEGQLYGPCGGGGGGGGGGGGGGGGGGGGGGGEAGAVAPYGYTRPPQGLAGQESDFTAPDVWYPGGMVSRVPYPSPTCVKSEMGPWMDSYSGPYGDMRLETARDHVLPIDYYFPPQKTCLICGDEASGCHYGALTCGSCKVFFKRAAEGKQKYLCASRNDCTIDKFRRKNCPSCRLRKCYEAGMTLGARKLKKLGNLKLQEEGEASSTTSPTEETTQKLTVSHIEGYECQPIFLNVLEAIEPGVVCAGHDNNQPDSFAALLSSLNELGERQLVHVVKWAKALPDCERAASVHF
Method: […]. Levels of expression of AR variant were determined by Western blotting using 10 μg of total protein extracted from same plates (3 wells per condition) using AR-N20 antibody (1:1000) and goat anti-rabbit HRP-conjugated secondary antibody (Santa Cruz Biotechnology; 1:10,000).

[2] = target: T2, AR interaction with STAT3 (Homo sapiens, UniProt P10275, T878A); experiment: Co-immunoprecipitation of AR with STAT3 in LNCaP cells; conditions: EPI-002 35 μM or SINT1 20 μM, 50 ng/ml IL-6 6 h
T2 construct: endogenous in cells; host or cells: LNCaP
T2 sequence (P10275 1-920 T878A): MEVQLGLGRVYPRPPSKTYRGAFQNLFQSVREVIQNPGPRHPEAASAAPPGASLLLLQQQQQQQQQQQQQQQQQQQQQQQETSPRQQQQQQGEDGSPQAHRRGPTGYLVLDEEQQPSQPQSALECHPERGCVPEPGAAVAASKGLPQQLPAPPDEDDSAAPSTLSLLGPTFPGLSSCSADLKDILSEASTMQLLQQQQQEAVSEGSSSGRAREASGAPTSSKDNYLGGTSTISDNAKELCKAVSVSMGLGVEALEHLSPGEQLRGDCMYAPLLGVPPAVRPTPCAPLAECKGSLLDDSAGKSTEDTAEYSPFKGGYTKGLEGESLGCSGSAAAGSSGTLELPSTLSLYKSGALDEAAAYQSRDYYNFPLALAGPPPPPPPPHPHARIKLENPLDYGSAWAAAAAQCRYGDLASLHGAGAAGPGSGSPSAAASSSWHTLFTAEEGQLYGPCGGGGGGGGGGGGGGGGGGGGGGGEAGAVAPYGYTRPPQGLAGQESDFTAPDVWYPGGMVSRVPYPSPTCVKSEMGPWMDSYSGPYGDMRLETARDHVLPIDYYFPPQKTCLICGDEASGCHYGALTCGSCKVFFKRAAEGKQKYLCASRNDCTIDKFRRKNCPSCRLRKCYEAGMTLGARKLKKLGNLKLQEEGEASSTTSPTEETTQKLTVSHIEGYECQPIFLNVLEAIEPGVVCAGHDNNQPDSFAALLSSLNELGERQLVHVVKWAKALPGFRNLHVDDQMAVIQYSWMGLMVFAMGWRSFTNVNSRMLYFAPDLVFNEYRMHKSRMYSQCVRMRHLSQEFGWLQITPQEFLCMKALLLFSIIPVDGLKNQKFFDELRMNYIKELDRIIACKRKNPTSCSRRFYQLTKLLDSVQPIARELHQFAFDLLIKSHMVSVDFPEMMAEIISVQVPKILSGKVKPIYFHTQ
Method: LNCaP cells were preincubated with EPI-002 (35 μM), SINT1 (20 μM), or DMSO (vehicle control) for 1 h before treatment for 6 h with 50 ng/ml IL-6. Whole cell lysates were prepared from harvested cells in modified radioimmune precipitation assay buffer. Cell lysates were precleared with 2 μg of normal mouse IgG and 20 μl of Protein A/G PLUS-agarose beads (Santa Cruz Biotechnology) to remove nonspecific bead binding. Total STAT3 was immunoprecipitated with 10 μg of antibody against STAT3 (124H6) or 10 μg of normal mouse IgG as a negative control followed by probing the immunoblot with anti-AR antibody (AR-N20; 1:1000) and anti-STAT3 antibody (124H6; 1:1000) and normalizing to levels of β-actin (1:10,000) as loading controls. The input lanes were loaded with 5 μg of the starting cell lysate. The relative density of AR for each immunoprecipitated sample was quantified by ImageJ software and normalized to levels of STAT3 pulled down.

[3] = system: LNCaP cells; experiment: Cell proliferation (BrdU incorporation), LNCaP; conditions: 0.1 nM R1881, 72 h
Method: Cells were pulse-labeled with 10 μM BrdU for 2 h. Cells were fixed, and BrdU-labeled cells were identified with anti-BrdU-peroxidase (Roche Applied Science). BrdU incorporation was measured at 570 nm using a VersaMax ELISA microplate reader (Molecular Devices). At least three independent experiments with six technical replicates were analyzed, and average values are indicated.

SMILES | AR-V567es transcriptional activities (PB-luciferase) [1] | interaction between AR and STAT3 [2] | androgen-induced proliferation of LNCaP cells [3] | levels of AR-V567es protein ([1]; COS-1, Western blot)
CC(C)(c1ccc(OC[C@H](O)CO)cc1)c1ccc(OC[C@H](O)CCl)cc1 [EPI-002, reference compound] | significantly inhibited | inhibited interaction | inhibited | –
CCC(=O)NC(CC(C)C(Cl)(Cl)Cl)C(=O)N1C(=O)C=C(OC)C1CC(C)C(Cl)Cl (stereo not shown) [SINT1, Sintokamide A] | significantly inhibited | did not | inhibited | not decreased
